# According to patent publication EP0889898B1, “MORPHOLINYL ANTHRACYCLINE DERIVATIVES” (PHARMACIA & UPJOHN S.p.A., priority 1996, dated 1998):
# System: L1210 leukemia cells
# Test: In vitro cytotoxic activity, growth inhibition test (colony growth), 48h treatment
# Assay type: cell-based
# Conditions: ratio of IC50 values versus compound 1
# Protocol: 3'-Deamino-3",4'-anhydro-[2"(S)-methoxy-3"(R)-hydroxy-4"-morpholinyl]doxorubicin 2a was tested in vitro on L1210 leukemia cells in comparison with 3'-deamino-3'-[2"(S)-methoxy-4"-morpholinyl]doxorubicin (1). The cytotoxic activity is reported as IC50, the concentration inhibiting 50% of colony growth, calculated on concentration response curves. […]
smiles,measurement,value
"COc1cccc2c1C(=O)c1c(O)c3c(c(O)c1C2=O)CC(O)(C(=O)CO)CC3OC1CC2C(OC3C(OC)OCCN23)C(C)O1 [Compound 2a, 3'-deamino-3""-4'-anhydro-[2""(S)-methoxy-3""(R)-hydroxy-4""-morpholinyl]doxorubicin]",fold more potent than compound 1,2.5x10^3 fold
